How the values were obtained:
PIM1 = PIM1 (Homo sapiens, UniProt P11309); experiment: PIM1 AlphaScreen kinase assay; format: biochemical; details: 1 mM ATP; read-out: Mean (SD) IC50
Description: (§1) The activity of INCB053914 against the PIM1 and PIM3 kinases was measured using AlphaScreen® assays (PerkinElmer, Inc., Shelton, Connecticut), and against PIM2 kinase using a time-resolved fluorescence resonance energy transfer assay (see Supporting Information, S1 File)
AlphaScreen assay. Reactions (20 μl) were carried out in white 384-well polystyrene plates (Greiner Bio-One, Kremsmünster, Austria) dotted with 0.8 μl of the compound in dimethylsulfoxide in the assay buffer (50 mM Tris, pH 7.5, 0.01% Tween-20, 5 mM MgCl2, 0.01% bovine serum albumin [BSA], 5 mM dithiothreitol) containing 0.05 μM Biotin-labeled Bcl-2–associated death promoter protein peptide substrate (AnaSpec, Fremont, California), 1 mM ATP, and 2.5 pM PIM1 (Invitrogen, Thermo Fisher Scientific, Waltham, Massachusetts), or 1.25 pM PIM3 (Millipore, Billerica, Massachusetts) enzyme. […] After the reactions were stopped, the plates were incubated for 1 hour in the dark at room temperature and then read on a PHERAstar FS plate reader (BMG Labtech, Cary, North Carolina) under reduced light.

PIM2 = PIM2 (Homo sapiens, UniProt Q9P1W9); experiment: PIM2 time-resolved fluorescence resonance energy transfer assay; format: biochemical; details: 1 mM ATP; read-out: Mean (SD) IC50
Description: as §1
Time-resolved fluorescence resonance energy transfer assay. Reactions (20 μl) were carried out in white 384-well polystyrene plates dotted with 0.8 μl of the compound in dimethylsulfoxide in the assay buffer (50 mM Tris, pH 7.5, 0.01% Tween-20, 5 mM MgCl2, 0.01% BSA, 5 mM dithiothreitol) containing 0.05 μM fluorescein-labeled CREBtide peptide substrate (Invitrogen), 1 mM ATP, and 1 nM PIM2 (Invitrogen). After 2 hours at 25°C, reactions were stopped with 10 μl RT-FRET dilution buffer (Invitrogen) supplemented with 30 mM EDTA and 1.5 nM LanthaScreen Tb-CREB pSer133 antibody (Invitrogen). After a 30-minute incubation at room temperature, plates were read on a PHERAstar FS plate reader (BMG Labtech).

CDK2 = CDK2 (Homo sapiens, UniProt P24941); experiment: Kinase selectivity panel; format: biochemical; details: [ATP] = 1 mM
CHEK1 = CHEK1 (Homo sapiens, UniProt O14757); experiment: Kinase selectivity panel; format: biochemical; details: [ATP] = 1 mM
EPHB4 = EPHB4 (Homo sapiens, UniProt P54760); experiment: Kinase selectivity panel; format: biochemical; details: [ATP] = 1 mM
FGFR3 = FGFR3 (Homo sapiens, UniProt P22607); experiment: Kinase selectivity panel; format: biochemical; details: [ATP] = 1 mM
GSK3B = GSK3B (Homo sapiens, UniProt P49841); experiment: Kinase selectivity panel; format: biochemical; details: [ATP] = 1 mM
KDR = KDR (Homo sapiens, UniProt P35968); experiment: Kinase selectivity panel; format: biochemical; details: [ATP] = 1 mM
Sequence of KDR (P35968 20-1356): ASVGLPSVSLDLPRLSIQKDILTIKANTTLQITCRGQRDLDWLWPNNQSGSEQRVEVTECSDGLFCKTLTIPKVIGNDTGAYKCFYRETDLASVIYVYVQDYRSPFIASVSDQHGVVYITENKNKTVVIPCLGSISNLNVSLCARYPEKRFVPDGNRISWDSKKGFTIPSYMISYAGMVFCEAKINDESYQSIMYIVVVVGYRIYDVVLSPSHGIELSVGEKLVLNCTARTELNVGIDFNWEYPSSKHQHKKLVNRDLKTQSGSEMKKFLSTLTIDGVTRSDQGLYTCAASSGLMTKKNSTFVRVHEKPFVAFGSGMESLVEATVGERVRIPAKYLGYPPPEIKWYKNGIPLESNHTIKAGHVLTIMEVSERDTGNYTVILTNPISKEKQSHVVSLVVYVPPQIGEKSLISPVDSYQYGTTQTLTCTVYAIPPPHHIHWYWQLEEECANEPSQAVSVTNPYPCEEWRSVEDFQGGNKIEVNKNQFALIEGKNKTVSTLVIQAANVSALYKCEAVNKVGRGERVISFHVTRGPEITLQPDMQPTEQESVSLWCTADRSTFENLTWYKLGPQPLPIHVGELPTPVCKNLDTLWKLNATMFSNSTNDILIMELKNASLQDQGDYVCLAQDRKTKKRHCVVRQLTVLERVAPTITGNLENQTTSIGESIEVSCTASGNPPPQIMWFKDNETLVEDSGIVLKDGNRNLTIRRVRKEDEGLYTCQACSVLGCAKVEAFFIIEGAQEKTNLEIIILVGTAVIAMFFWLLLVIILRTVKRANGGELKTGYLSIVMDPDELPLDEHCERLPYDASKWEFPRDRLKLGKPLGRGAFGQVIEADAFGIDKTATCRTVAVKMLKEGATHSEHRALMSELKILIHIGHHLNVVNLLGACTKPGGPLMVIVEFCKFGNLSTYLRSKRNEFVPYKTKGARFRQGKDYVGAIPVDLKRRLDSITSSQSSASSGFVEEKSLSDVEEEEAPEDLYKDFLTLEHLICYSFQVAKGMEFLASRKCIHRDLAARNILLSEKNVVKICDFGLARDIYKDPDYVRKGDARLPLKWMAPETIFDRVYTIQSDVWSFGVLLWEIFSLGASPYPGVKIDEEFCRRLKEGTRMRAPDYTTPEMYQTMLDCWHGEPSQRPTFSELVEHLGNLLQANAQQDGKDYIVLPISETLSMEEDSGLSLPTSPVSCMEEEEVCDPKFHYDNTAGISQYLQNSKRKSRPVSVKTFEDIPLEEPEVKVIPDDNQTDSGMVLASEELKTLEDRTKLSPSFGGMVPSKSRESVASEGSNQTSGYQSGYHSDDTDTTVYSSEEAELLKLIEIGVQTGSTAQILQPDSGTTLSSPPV

KIT = KIT (Homo sapiens, UniProt P10721); experiment: Kinase selectivity panel; format: biochemical; details: [ATP] = 1 mM
Sequence of KIT (P10721 26-976): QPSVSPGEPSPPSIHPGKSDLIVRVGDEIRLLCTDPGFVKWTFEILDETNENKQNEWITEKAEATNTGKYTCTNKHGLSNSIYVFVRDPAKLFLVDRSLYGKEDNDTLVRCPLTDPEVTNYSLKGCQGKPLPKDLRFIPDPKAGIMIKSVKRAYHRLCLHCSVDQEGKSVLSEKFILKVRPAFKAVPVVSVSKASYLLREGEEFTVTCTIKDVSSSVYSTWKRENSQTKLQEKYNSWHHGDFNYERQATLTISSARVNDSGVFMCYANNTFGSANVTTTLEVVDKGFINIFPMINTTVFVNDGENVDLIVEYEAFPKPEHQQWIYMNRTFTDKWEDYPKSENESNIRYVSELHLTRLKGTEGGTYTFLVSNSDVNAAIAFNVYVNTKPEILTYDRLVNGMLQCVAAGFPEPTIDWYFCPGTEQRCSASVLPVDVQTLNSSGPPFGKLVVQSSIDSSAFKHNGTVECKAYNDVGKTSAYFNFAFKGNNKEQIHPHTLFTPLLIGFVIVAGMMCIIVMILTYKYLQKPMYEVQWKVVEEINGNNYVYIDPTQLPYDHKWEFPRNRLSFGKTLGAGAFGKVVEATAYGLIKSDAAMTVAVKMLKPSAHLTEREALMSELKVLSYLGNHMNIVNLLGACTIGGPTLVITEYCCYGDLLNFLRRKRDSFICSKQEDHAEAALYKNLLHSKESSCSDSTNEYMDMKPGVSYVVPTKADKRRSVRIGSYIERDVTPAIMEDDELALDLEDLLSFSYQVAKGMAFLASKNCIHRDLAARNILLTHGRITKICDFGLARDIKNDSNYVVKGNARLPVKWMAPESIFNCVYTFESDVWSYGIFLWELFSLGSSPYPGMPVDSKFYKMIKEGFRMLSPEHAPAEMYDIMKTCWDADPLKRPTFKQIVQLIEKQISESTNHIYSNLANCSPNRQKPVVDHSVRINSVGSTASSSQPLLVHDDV

LRRK2 = LRRK2 (Homo sapiens, UniProt Q5S007); experiment: Kinase selectivity panel; format: biochemical; details: [ATP] = 1 mM
MAPKAPK2 = MAPKAPK2 (Homo sapiens, UniProt P49137); experiment: Kinase selectivity panel; format: biochemical; details: [ATP] = 1 mM
Sequence of MAPKAPK2 (P49137 whole entry): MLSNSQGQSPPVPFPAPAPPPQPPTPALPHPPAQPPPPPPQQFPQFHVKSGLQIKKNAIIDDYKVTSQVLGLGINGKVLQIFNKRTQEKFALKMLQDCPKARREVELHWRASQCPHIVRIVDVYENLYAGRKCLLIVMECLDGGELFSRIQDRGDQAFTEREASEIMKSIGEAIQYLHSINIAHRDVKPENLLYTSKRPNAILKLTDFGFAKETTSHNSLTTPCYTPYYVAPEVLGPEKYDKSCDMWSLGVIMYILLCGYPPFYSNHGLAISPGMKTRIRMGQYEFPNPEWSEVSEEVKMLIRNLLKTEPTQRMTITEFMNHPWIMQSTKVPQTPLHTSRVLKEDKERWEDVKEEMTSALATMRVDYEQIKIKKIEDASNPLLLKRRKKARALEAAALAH

MINK = MINK (Homo sapiens, UniProt Q8N4C8); experiment: Kinase selectivity panel; format: biochemical; details: [ATP] = 1 mM
Sequence of MINK (Q8N4C8 whole entry): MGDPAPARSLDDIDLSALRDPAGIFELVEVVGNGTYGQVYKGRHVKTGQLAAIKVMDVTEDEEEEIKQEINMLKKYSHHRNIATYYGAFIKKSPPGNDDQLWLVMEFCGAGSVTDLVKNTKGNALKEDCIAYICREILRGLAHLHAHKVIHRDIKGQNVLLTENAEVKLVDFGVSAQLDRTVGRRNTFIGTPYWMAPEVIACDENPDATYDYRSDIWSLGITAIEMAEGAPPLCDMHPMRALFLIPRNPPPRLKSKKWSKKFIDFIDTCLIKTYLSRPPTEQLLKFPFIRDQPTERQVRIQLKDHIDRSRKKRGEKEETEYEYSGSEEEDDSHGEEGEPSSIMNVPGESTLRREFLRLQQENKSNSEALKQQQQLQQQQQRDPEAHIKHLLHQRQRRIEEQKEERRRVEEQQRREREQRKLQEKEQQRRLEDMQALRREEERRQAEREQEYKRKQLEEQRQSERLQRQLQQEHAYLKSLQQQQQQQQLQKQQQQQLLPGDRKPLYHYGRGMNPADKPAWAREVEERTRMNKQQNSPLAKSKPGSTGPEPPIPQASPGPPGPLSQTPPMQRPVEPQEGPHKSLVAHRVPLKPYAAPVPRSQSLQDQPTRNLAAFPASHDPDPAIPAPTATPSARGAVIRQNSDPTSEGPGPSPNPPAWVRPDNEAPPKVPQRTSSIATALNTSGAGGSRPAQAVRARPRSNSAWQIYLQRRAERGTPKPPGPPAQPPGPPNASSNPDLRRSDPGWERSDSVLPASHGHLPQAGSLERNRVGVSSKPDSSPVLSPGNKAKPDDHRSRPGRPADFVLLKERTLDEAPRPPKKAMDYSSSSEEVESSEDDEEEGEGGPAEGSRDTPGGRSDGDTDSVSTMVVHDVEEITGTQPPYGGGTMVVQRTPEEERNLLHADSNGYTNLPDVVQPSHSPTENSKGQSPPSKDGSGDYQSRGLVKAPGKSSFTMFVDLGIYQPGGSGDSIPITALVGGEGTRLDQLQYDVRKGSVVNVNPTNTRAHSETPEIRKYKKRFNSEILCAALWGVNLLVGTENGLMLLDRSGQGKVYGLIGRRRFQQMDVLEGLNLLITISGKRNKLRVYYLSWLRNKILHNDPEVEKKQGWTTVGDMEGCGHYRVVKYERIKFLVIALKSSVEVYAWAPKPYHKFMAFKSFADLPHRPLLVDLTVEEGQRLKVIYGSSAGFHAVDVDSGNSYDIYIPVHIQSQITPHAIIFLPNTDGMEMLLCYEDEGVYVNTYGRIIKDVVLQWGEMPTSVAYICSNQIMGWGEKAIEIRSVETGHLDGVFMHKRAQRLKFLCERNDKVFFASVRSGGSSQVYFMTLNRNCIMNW

NLK = NLK (Homo sapiens, UniProt Q9UBE8); experiment: Kinase selectivity panel; format: biochemical; details: [ATP] = 1 mM
PKCD = PKCD (Homo sapiens, UniProt Q05655); experiment: Kinase selectivity panel; format: biochemical; details: [ATP] = 1 mM
Sequence of PKCD (Q05655 whole entry): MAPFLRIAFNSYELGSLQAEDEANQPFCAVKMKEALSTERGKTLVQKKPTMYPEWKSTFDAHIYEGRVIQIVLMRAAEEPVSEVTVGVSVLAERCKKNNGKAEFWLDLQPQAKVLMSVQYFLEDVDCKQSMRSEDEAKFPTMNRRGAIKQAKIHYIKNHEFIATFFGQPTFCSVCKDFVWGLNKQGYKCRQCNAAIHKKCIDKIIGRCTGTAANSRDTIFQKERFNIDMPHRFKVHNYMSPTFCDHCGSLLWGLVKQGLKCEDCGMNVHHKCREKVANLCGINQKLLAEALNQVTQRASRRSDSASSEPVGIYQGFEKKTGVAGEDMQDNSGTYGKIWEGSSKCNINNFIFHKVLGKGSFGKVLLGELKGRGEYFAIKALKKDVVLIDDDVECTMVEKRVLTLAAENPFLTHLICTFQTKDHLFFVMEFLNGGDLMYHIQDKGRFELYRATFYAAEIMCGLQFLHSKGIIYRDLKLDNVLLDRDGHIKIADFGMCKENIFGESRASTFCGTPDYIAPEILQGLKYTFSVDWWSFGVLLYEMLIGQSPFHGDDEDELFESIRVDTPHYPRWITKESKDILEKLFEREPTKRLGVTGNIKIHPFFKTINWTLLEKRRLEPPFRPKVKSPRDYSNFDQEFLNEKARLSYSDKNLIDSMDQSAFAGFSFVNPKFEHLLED

PRKAA1 = PRKAA1 (Homo sapiens, UniProt Q13131); experiment: Kinase selectivity panel; format: biochemical; details: [ATP] = 1 mM
STK4 = STK4 (Homo sapiens, UniProt Q13043); experiment: Kinase selectivity panel; format: biochemical; details: [ATP] = 1 mM
TRKA = TRKA (Homo sapiens, UniProt P04629); experiment: Kinase selectivity panel; format: biochemical; details: [ATP] = 1 mM
[1] = tested on: panel of more than 50 kinases; details: except for RSK2
Description: S1 Table. Selectivity of INCB053914 for PIM kinases compared with 56 kinases representative of the kinome [ATP] = 1 mM.

[2] = Plasma concentrations of INCB053914 in tumor-bearing mice; format: in vivo, mouse; details: up to 16 hours post oral administration, MOLM-16 and KMS-12-BM tumor-bearing mice
Description: Human MOLM-16 (AML) and KMS-12-BM (MM) xenografts were established in SCID mice. For the evaluation of intratumoral pBAD inhibition, tumor-bearing mice (three to eight mice/group) were treated with a single oral dose of INCB053914 at doses ranging from 0 (vehicle) to 100 mg/kg. In one representative experiment, mice were sacrificed 4 hours after a single dose, and tumors were collected to analyze the levels of pBAD relative to those of vehicle-administered controls. Plasma samples were collected for pharmacokinetic analysis.
Concentrations of INCB053914 in plasma were analyzed using liquid chromatography tandem–mass spectrometry at 2, 4, 8, and 16 hours postdose (see Supporting Information, S3 File).
Blood samples from each study were collected using EDTA and centrifuged to obtain plasma. The calibration curves were prepared in mouse plasma (BioreclamationIVT, Westbury, New York). Samples (50 µl) were placed in a 2-ml square well plate (Costar, Corning, New York). Acetonitrile/methanol 9/1 v/v (550 µl) containing an internal standard was added for precipitation of the protein. The 96-well plate was covered, vortexed for 5 minutes, and centrifuged for 10 minutes at 3,000 rpm. […] The samples were analyzed for INCB053914 by liquid chromatography tandem–mass spectrometry using gradient high-performance liquid chromatography and atmospheric pressure chemical ionization.

Sequence of PIM1 (P11309 whole entry): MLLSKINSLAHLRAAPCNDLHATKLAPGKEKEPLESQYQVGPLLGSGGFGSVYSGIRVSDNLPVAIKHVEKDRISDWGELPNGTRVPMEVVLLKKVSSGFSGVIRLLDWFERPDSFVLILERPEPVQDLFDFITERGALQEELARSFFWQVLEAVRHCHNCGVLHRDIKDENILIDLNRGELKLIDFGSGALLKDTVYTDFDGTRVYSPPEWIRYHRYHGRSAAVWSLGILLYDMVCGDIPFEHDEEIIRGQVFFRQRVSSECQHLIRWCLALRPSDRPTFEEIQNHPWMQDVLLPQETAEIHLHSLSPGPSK

For `C[C@H]1CN(c2c(NC(=O)c3ccc(F)c(-c4c(F)cccc4F)n3)cnc3c2CC[C@H]3O)C[C@@H](N)[C@@H]1O.O=P(O)(O)O` [INCB053914, N-((R)-4-((3R,4R,5S)-3-amino-4-hydroxy-5-methylpiperidin-1-yl)-7-hydroxy-6,7-dihydro-5H-cyclopenta[b]pyridin-3-yl)-6-(2,6-difluorophenyl)-5-fluoropicolinamide phosphate], the IC50 (PIM1) was 0.00024 µM, the IC50 (PIM2) was 0.03 µM and the IC50 (CDK2) was > 20 µM. The IC50 (CHEK1) was > 20 µM, the IC50 (EPHB4) was > 20 µM and the IC50 (FGFR3) was > 20 µM. For the same compound, the IC50 (GSK3B) was > 20 µM, the IC50 (KDR) was > 20 µM and the IC50 (KIT) was > 20 µM. For the same compound, the IC50 (LRRK2) was > 20 µM, the IC50 (MAPKAPK2) was > 20 µM and the IC50 (MINK) was > 20 µM. For the same compound, the IC50 (NLK) was > 20 µM, the IC50 (PKCD) was > 20 µM and the IC50 (PRKAA1) was > 20 µM. For the same compound, the IC50 (STK4) was > 20 µM, the IC50 (TRKA) was > 20 µM and the “selectivity against a panel of more than 50 kinases” value [1] was > 475 fold. The “plasma concentrations versus dose” value [2] was “suggested dose proportionality”.

— paper PMC6013247, “Preclinical characterization of INCB053914, a novel pan-PIM kinase inhibitor, alone and in combination with anticancer agents, in models of hematologic malignancies” (PLoS ONE, 2018)
